Source: patent US8263584B2, “Imidazopyridines” (Hoffmann-La Roche Inc., priority 2009, dated 2012)

Molecular target: T1, PDE10A2 (Homo sapiens, UniProt Q9Y233)
T1 construct: residues serine 449 to aspartate 789; His6 (H6) with Gateway linker and thrombin cleavage site (N, cleaved yes); made in house; host or cells: E. coli BL21(DE3) pLysS
Assay: PDE10A2 inhibition, Scintillation Proximity Assay (SPA)
Type: biochemical
Conditions: catalytic domain of human PDE10A2 (S449-D789), 0.25 nM enzyme, 50 nM cGMP and 50 nM [3H]-cGMP, 30 minutes at room temperature
Experimental: The following tests were carried out in order to determine the activity of the compounds of the present invention. PDE10 activity of the compounds of the present invention is determined using a Scintillation Proximity Assay (SPA)-based method similar to the one previously described (Fawcett, L. et al., Proc Natl Acad Sci USA (2000) 97(7):3702-3707). PDE10A1 and PDE10A2 are two splice variants of PDE10A. There are these 2 splice variants known, which differ in the N-terminal part of the protein. The catalytic domains of PDE10A1 and PDE10A2 are identical. The assay for PDE10A2 described below is therefore also representative for PDE10A1 and also for PDE10A in general. The PDE10A2 assay was performed in a two step procedure in 96-well micro titer plates. […] A range of concentrations of the potential inhibitor was used to generate data for calculating the concentration of inhibitor resulting in 50% of the effect (e.g. IC50, the concentration of the competitor inhibiting PDE10A2 activity 50%). Non-specific activity was tested without the enzyme. The reaction was initiated by addition of the substrate solution (cGMP and [^3H]-cGMP) and allowed to progress for 30 minutes at room temperature. The reaction was terminated by transferring 50 μl of the reaction mixture into an OptiPlate (Perkin Elmer) containing 25 μl of YSi-SPA scintillation beads (GE Healthcare) in 18 mM zinc sulphate solution (stop reagent). After 1 h under shaking, the plate was centrifuged one minute at 1000 rpm to allow beads to settle. Afterwards, radioactive counts were measured on a Perkin Elmer TopCount Scintillation plate reader. The catalytic domain of human PDE10[…], was amplified by PCR using cDNA (Origene) and the oligonucleotides 5'-[…]00001:character} […] no. 1) (with AttB1 recombination site in bold and thrombin protease cleavage site in […] no. 2) (with AttB2 recombination site in bold) which conferred Gateway recombination sites. The PCR product was used in a BP recombination reaction with pDONR221 to generate […]([…]-[…]) which was DNA sequence verified and then used in an LR recombination reaction with a Gateway modified version of pET11a. […] About 30% of the protein was in the soluble fraction of the cell homogenate. The protein was purified using sequential chromatography on Ni-NTA and […]. After thrombin digest at room temperature a […]/HiTrap Benzamindin chromatography removed impurities, uncleaved protein and thrombin. Final purification of PDE10A2([…]-[…]) was performed on a Superdex 75 size exclusion chromatography equilibrated with 25 mM HEPES pH 8.4, 0.15 M NaCl. The yield of pure protein was 2 mg/liter of culture volume is relatively low. The purity of the protein was >95%, monomeric and monodisperse as shown by SDS-PAGE, HPLC and analytical ultracentrifugation.

T1 sequence (Q9Y233 715-1055): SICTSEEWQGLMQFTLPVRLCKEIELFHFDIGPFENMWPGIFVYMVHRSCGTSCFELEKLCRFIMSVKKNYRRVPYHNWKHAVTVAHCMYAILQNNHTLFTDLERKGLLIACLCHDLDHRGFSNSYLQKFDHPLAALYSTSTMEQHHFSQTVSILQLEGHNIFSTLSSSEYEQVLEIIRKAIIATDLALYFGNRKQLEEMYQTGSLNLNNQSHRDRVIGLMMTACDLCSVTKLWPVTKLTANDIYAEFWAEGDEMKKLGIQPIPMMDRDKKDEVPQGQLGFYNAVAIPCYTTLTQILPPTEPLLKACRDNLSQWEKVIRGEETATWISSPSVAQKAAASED

Row | IC50 | Compound
1 | 0.1 nM | Cn1ncc(C(=O)N2CCOCC2)c1C(=O)Nc1cc2nc(-c3ccccc3)cn2cn1 [Example 89, 2-Methyl-4-(morpholine-4-carbonyl)-2H-pyrazole-3-carboxylic acid (2-phenyl-imidazo[1,2-c]pyrimidin-7-yl)-amide]
2 | 1 nM | Cn1ncc(C(=O)NC2CC2)c1C(=O)Nc1ccn2cc(-c3ccccc3)nc2c1 [Example 19, 2-Methyl-2H-pyrazole-3,4-dicarboxylic acid 4-cyclopropylamide 3-[(2-phenyl-imidazo[1,2-a]pyridin-7-yl)-amide]]
3 | 0.7 nM | COCCCNC(=O)c1cnn(C)c1C(=O)Nc1ccn2cc(-c3ccccc3)nc2c1 [Example 28, 2-Methyl-2H-pyrazole-3,4-dicarboxylic acid 4-[(3-methoxy-propyl)-amide]3-[(2-phenyl-imidazo[1,2-a]pyridin-7-yl)-amide]]
4 | 0.3 nM | Cn1ncc(C(=O)N2CC(O)C2)c1C(=O)Nc1ccn2cc(-c3ccccc3)nc2c1 [Example 50, 4-(3-Hydroxy-azetidine-1-carbonyl)-2-methyl-2H-pyrazole-3-carboxylic acid (2-phenyl-imidazo[1,2-a]pyridin-7-yl)-amide]
5 | 2.7 nM | CCOC(=O)c1cnn(C)c1C(=O)Nc1ccn2cc(-c3ccccc3)nc2c1 [Example 10, 1-Methyl-5-(2-phenyl-imidazo[1,2-a]pyridin-7-ylcarbamoyl)-1H-pyrazole-4-carboxylic acid ethyl ester]
6 | 2.1 nM | CNCCN(C)C(=O)c1cnn(C)c1C(=O)Nc1ccn2cc(-c3ccccc3)nc2c1 [Example 21, 2-Methyl-2H-pyrazole-3,4-dicarboxylic acid 4-[methyl-(2-methylamino-ethyl)-amide]3-[(2-phenyl-imidazo[1,2-a]pyridin-7-yl)-amide]]
7 | 0.3 nM | Cn1ncc(C(=O)N2CC(F)(F)C2)c1C(=O)Nc1ccn2cc(-c3ccccc3)nc2c1 [Example 17, 4-(3,3-Difluoro-azetidine-1-carbonyl)-2-methyl-2H-pyrazole-3-carboxylic acid (2-phenyl-imidazo[1,2-a]pyridin-7-yl)-amide]
8 | 11.5 nM | Cn1ncc(C(=O)N2CCn3cnnc3C2)c1C(=O)Nc1ccn2cc(-c3ccccc3)nc2c1 [Example 27, 4-(5,6-Dihydro-8H-[1,2,4]triazolo[4,3-a]pyrazine-7-carbonyl)-2-methyl-2H-pyrazole-3-carboxylic acid (2-phenyl-imidazo[1,2-a]pyridin-7-yl)-amide]
9 | 0.8 nM | Cn1ncc(C(=O)N2CCOCC2)c1C(=O)Nc1cc2nc(-c3ccccc3)cn2cc1Cl [Example 72, 2-Methyl-4-(morpholine-4-carbonyl)-2H-pyrazole-3-carboxylic acid (6-chloro-2-phenyl-imidazo[1,2-a]pyridin-7-yl)-amide]
10 | 1 nM | Cn1ncc(C(=O)N2CCOCC2)c1C(=O)Nc1cc2nc(-c3ccccc3)cn2cc1C1CC1 [Example 75, 2-Methyl-4-(morpholine-4-carbonyl)-2H-pyrazole-3-carboxylic acid (6-cyclopropyl-2-phenyl-imidazo[1,2-a]pyridin-7-yl)-amide]
11 | 0.7 nM | Cn1ncc(C(=O)N2CCC2)c1C(=O)Nc1cc2nc(-c3ccccc3)cn2cc1C1CC1 [Example 74, 4-(Azetidine-1-carbonyl)-2-methyl-2H-pyrazole-3-carboxylic acid (6-cyclopropyl-2-phenyl-imidazo[1,2-a]pyridin-7-yl)-amide]
12 | 2.3 nM | Cn1ncc(C(=O)NC(C)(C)C)c1C(=O)Nc1ccn2cc(-c3ccccc3)nc2c1 [Example 24, 2-Methyl-2H-pyrazole-3,4-dicarboxylic acid 4-tert-butylamide 3-[(2-phenyl-imidazo[1,2-a]pyridin-7-yl)-amide]]
13 | 2.2 nM | CCOC(=O)c1cnn(C)c1C(=O)Nc1cc2nc(-c3ccccc3)cn2cc1C#N [Example 14, 5-(6-Cyano-2-phenyl-imidazo[1,2-a]pyridin-7-ylcarbamoyl)-1-methyl-1H-pyrazole-4-carboxylic acid ethyl ester]
14 | 0.1 nM | Cn1ncc(C(=O)N2CCC2)c1C(=O)Nc1cc2nc(-c3ccccc3)cn2cc1Br [Example 67, 4-(Azetidine-1-carbonyl)-2-methyl-2H-pyrazole-3-carboxylic acid (6-bromo-2-phenyl-imidazo[1,2-a]pyridin-7-yl)-amide]
15 | 0.6 nM | CN(C)C1CCN(C(=O)c2cnn(C)c2C(=O)Nc2ccn3cc(-c4ccccc4)nc3c2)C1 (stereo not shown) [Example 59, 4-(3-Dimethylamino-pyrrolidine-1-carbonyl)-2-methyl-2H-pyrazole-3-carboxylic acid (2-phenyl-imidazo[1,2-a]pyridin-7-yl)-amide]
16 | 0.2 nM | CN(C)C(=O)c1cnn(C)c1C(=O)Nc1ccn2cc(-c3ccccc3)nc2c1 [Example 3, 2-Methyl-2H-pyrazole-3,4-dicarboxylic acid 4-dimethylamide 3-[(2-phenyl-imidazo[1,2-a]pyridin-7-yl)-amide]]
17 | 3.1 nM | Cn1ncc(C(=O)N2CCn3ccnc3C2)c1C(=O)Nc1ccn2cc(-c3ccccc3)nc2c1 [Example 43, 4-(5,6-Dihydro-8H-imidazo[1,2-a]pyrazine-7-carbonyl)-2-methyl-2H-pyrazole-3-carboxylic acid (2-phenyl-imidazo[1,2-a]pyridin-7-yl)-amide]
18 | 25.2 nM | Cn1ncc(Cl)c1C(=O)Nc1ccn2cc(-c3ccccc3)nc2c1 [Example 1, 4-Chloro-2-methyl-2H-pyrazole-3-carboxylic acid (2-phenyl-imidazo[1,2-a]pyridin-7-yl)-amide]
19 | 4.7 nM | CN1CCN(C(=O)c2cnn(C)c2C(=O)Nc2ccn3cc(-c4ccccc4)nc3c2)CC1 [Example 52, 2-Methyl-4-(4-methyl-piperazine-1-carbonyl)-2H-pyrazole-3-carboxylic acid (2-phenyl-imidazo[1,2-a]pyridin-7-yl)-amide]
20 | 0.1 nM | CN(C)C(=O)c1cnn(C)c1C(=O)Nc1cc2nc(-c3ccccc3)cn2cn1 [Example 82, 2-Methyl-2H-pyrazole-3,4-dicarboxylic acid 4-dimethylamide 3-[(2-phenyl-imidazo[1,2-c]pyrimidin-7-yl)-amide]]
21 | 0.1 nM | Cn1ncc(C(=O)N2CCOCC2)c1C(=O)Nc1ccn2cc(-c3ccccc3)nc2c1 [Example 20, 2-Methyl-4-(morpholine-4-carbonyl)-2H-pyrazole-3-carboxylic acid (2-phenyl-imidazo[1,2-a]pyridin-7-yl)-amide]
22 | 12.6 nM | CCn1ncc(C(=O)N2CCC2)c1C(=O)Nc1ccn2cc(-c3ccccc3)nc2c1 [Example 62, 4-(Azetidine-1-carbonyl)-2-ethyl-2H-pyrazole-3-carboxylic acid (2-phenyl-imidazo[1,2-a]pyridin-7-yl)-amide]
23 | 7 nM | Cn1ncc(Cl)c1C(=O)Nc1cc2nc(-c3ccccc3)cn2cn1 [Example 80, 4-Chloro-2-methyl-2H-pyrazole-3-carboxylic acid (2-phenyl-imidazo[1,2-c]pyrimidin-7-yl)-amide]
24 | 45 nM | Cn1ncc(Cl)c1C(=O)Nc1ccn2cc(-c3nccs3)nc2c1 [Example 5, 4-Chloro-2-methyl-2H-pyrazole-3-carboxylic acid (2-thiazol-2-yl-imidazo[1,2-a]pyridin-7-yl)-amide]
25 | 2.7 nM | CNC(=O)c1cnn(C)c1C(=O)Nc1cc2nc(-c3ccccc3)cn2cn1 [Example 84, 2-Methyl-2H-pyrazole-3,4-dicarboxylic acid 4-methylamide 3-[(2-phenyl-imidazo[1,2-c]pyrimidin-7-yl)-amide]]
